# Experimental data reported in patent publication US4308380A, “2-Lower alkyl-2 or 3-cephem-4-carboxylic acid derivatives” (Fujisawa Pharmaceutical Co., Ltd., priority 1973, dated 1981).
# Where two headings read alike, the source gives them in different places.
# Legend:
# Type in all cases: cell-based
# [1] = tested on: Staphylococcus aureus 209 P JC-1; assay: in vitro antimicrobial activity, two-fold agar-plate dilution method, S. aureus 209 P JC-1; settings: 20 hours
# Description: (§1) In vitro antimicrobial activity was determined by the two-fold agar-plate dilution method as described below.
# (§2) One loopful of an overnight culture of each test strain in Trypticase-soy broth (10^8 viable cells per ml) was streaked on heart infusion agar (HI-agar) containing graded concentration of antibiotics, and the minimum inhibitory concentration (MIC) was expressed in terms of meg/ml after incubation at 37° C. for 20 hours.
# (§3) The data in Table 1 below present a comparison between the 2-(C1 -C6 alkyl)-cephem compounds of the present invention and known cephem compounds structurally analogous to the present compounds, differing only by alkyl substitution in the 3-position. The in vitro tests of antimicrobial activity of the compared compounds were determined by the two-fold agar plate dilution method described as follows:
# (§4) One loopful of an overnight culture of each test strain in Trypticase-soy broth (10^8 viable cells per ml) was streaked on heart infusion agar (HI sugar) containing graded concentration of antibiotics, and the minimum inhibitory concentration (MIC) was expressed in terms of mcg/ml after incubation at 37° C. for 20 hours.
# [2] = tested on: Staphylococcus aureus 277; assay: in vitro antimicrobial activity, two-fold agar plate dilution method, S. aureus 277; settings: Table 1, S. aureus 277, 37° C., 20 hours, read-out: minimum inhibitory concentration (MIC)
# Description: (§5) The in vitro tests of antimicrobial activity of the compared compounds were determined by the two-fold agar plate dilution method described as follows: […]
# [3] = tested on: Staphylococcus aureus 206; assay: in vitro antimicrobial activity, two-fold agar plate dilution method, S. aureus 206; settings: Table 1, S. aureus 206, 37° C., 20 hours, read-out: minimum inhibitory concentration (MIC)
# Description: as §5
# [4] = tested on: Staphylococcus aureus 226; assay: in vitro antimicrobial activity, two-fold agar plate dilution method, S. aureus 226; settings: Table 1, S. aureus 226, 37° C., 20 hours, read-out: minimum inhibitory concentration (MIC)
# Description: as §5
# [5] = tested on: Bacillus subtilis ATCC-6633; assay: in vitro antimicrobial activity, two-fold agar-plate dilution method, B. subtilis ATCC-6633; settings: 20 hours
# Description: as §1, §2, §3, §4
# [6] = tested on: Staphylococcus aureus 278; assay: in vitro antimicrobial activity, two-fold agar plate dilution method, S. aureus 278; settings: Table 1, S. aureus 278, 37° C., 20 hours, read-out: minimum inhibitory concentration (MIC)
# Description: as §5
# [7] = tested on: Staphylococcus aureus 213; assay: in vitro antimicrobial activity, two-fold agar plate dilution method, S. aureus 213; settings: Table 1, S. aureus 213, 37° C., 20 hours, read-out: minimum inhibitory concentration (MIC)
# Description: as §5
# [8] = 209PJC1, Table 1, S. aureus 209 P JC-1, 37° C., read-out: minimum inhibitory concentration (MIC)
# [9] = S. aureus 209-P JC-1, 37° C., HI-agar, read-out: MIC
# [10] = ATCC6633, B. subtilis ATCC-6633, 37° C., HI-agar, read-out: MIC
# [11] = ATCC6633, Table 1, B. subtilis ATCC-6633, 37° C., read-out: minimum inhibitory concentration (MIC)
structure (smiles),measurement,setting,value
"CC1C=C(C(=O)O)N2C(=O)C(NC(=O)C(O)c3ccccc3)[C@H]2S1 (stereo partly shown) [Applicants' compound (7), 2-Methyl-7-(2-hydroxy-2-phenylacetamido)-3-cephem-4-carboxylic acid]",MIC,[1]; [8],0.78 µg/mL
same,MIC,[1]; [9],0.78 µg/mL
same,MIC,[2],6.25 µg/mL
same,MIC,[3],1.56 µg/mL
same,MIC,[4],1.56 µg/mL
same,MIC,[5]; [10],0.39 µg/mL
same,MIC,[5]; [11],0.39 µg/mL
same,MIC,[6],1.56 µg/mL
same,MIC,[7],1.56 µg/mL
"CC1C=C(C(=O)O)N2C(=O)C(NC(=O)CC#N)[C@H]2S1 (stereo partly shown) [Applicants' compound (13), 2-Methyl-7-(2-cyanoacetamido)-3-cephem-4-carboxylic acid]",MIC,[1]; [8],3.13 µg/mL
same,MIC,[1]; [9],3.13 µg/mL
same,MIC,[2],3.13 µg/mL
same,MIC,[3],6.25 µg/mL
same,MIC,[4],6.25 µg/mL
same,MIC,[5]; [10],3.13 µg/mL
same,MIC,[5]; [11],3.13 µg/mL
same,MIC,[6],6.25 µg/mL
same,MIC,[7],12.5 µg/mL
"CC1=C(C(=O)O)N2C(=O)C(NC(=O)C(O)c3ccccc3)[C@H]2SC1 (stereo partly shown) [cited compound (7), 3-Methyl-7-(2-hydroxy-2-phenylacetamido)-3-cephem-4-carboxylic acid, reference compound]",MIC,[1]; [8],3.13 µg/mL
same,MIC,[2],12.5 µg/mL
same,MIC,[3],12.5 µg/mL
same,MIC,[4],12.5 µg/mL
same,MIC,[5]; [11],1.56 µg/mL
same,MIC,[6],12.5 µg/mL
same,MIC,[7],25 µg/mL
"C=CCSCC(=O)NC1C(=O)N2C(C(=O)O)=CC(C)S[C@H]12 (stereo partly shown) [Applicants' compound (14), 2-Methyl-7-[2-(allylthio)acetamido]-3-cephem-4-carboxylic acid]",MIC,[1]; [8],1.56 µg/mL
same,MIC,[1]; [9],1.56 µg/mL
same,MIC,[2],1.56 µg/mL
same,MIC,[3],3.13 µg/mL
same,MIC,[4],3.13 µg/mL
same,MIC,[5]; [10],1.56 µg/mL
same,MIC,[5]; [11],1.56 µg/mL
same,MIC,[6],3.13 µg/mL
same,MIC,[7],6.25 µg/mL
"CC1C=C(C(=O)O)N2C(=O)C(NC(=O)Cc3cccs3)[C@H]2S1 (stereo partly shown) [Applicants' compound (5), 2-Methyl-7-[2-(2-thienyl)acetamido]-3-cephem-4-carboxylic acid]",MIC,[1]; [8],0.78 µg/mL
same,MIC,[1]; [9],0.78 µg/mL
same,MIC,[2],1.56 µg/mL
same,MIC,[3],1.56 µg/mL
same,MIC,[4],1.56 µg/mL
same,MIC,[5]; [10],0.39 µg/mL
same,MIC,[5]; [11],0.39 µg/mL
same,MIC,[6],1.56 µg/mL
same,MIC,[7],1.56 µg/mL
"CC1C=C(C(=O)O)N2C(=O)C(NC(=O)Cc3cccnc3)[C@H]2S1 (stereo partly shown) [Applicants' compound (15), 2-Methyl-7-[2-(3-pyridyl)acetamido]-3-cephem-4-carboxylic acid]",MIC,[1]; [8],3.13 µg/mL
same,MIC,[1]; [9],3.13 µg/mL
same,MIC,[2],25 µg/mL
same,MIC,[3],6.25 µg/mL
same,MIC,[4],6.25 µg/mL
same,MIC,[5]; [10],0.78 µg/mL
same,MIC,[5]; [11],0.78 µg/mL
same,MIC,[6],6.25 µg/mL
same,MIC,[7],6.25 µg/mL
"CC1C=C(C(=O)O)N2C(=O)C(NC(=O)C(N=[N+]=[N-])c3ccccc3)[C@H]2S1 (stereo partly shown) [Applicants' compound (10), 2-Methyl-7-(2-azido-2-phenylacetamido)-3-cephem-4-carboxylic acid]",MIC,[1]; [8],1.56 µg/mL
same,MIC,[1]; [9],1.56 µg/mL
same,MIC,[2],12.5 µg/mL
same,MIC,[3],1.56 µg/mL
same,MIC,[4],1.56 µg/mL
same,MIC,[5]; [10],0.39 µg/mL
same,MIC,[5]; [11],0.39 µg/mL
same,MIC,[6],1.56 µg/mL
same,MIC,[7],1.56 µg/mL
"CC1=C(C(=O)O)N2C(=O)C(NC(=O)Cc3cnsn3)[C@H]2SC1 (stereo partly shown) [cited compound (12), 3-Methyl-7-[2-(1,2,5-thiadiazol-3-yl)acetamido]-3-cephem-4-carboxylic acid, reference compound]",MIC,[1]; [8],12.5 µg/mL
same,MIC,[2],25 µg/mL
same,MIC,[3],12.5 µg/mL
same,MIC,[4],25 µg/mL
same,MIC,[5]; [11],3.13 µg/mL
same,MIC,[6],25 µg/mL
same,MIC,[7],25 µg/mL
"CSc1ccc(C(N)C(=O)NC2C(=O)N3C(C(=O)O)=CC(C)S[C@H]23)cc1 (stereo partly shown) [Applicants' compound (16), 2-Methyl-7-[2-amino-2-(4-methylthiophenyl)acetamido]-3-cephem-4-carboxylicacid]",MIC,[1]; [8],3.13 µg/mL
same,MIC,[1]; [9],3.13 µg/mL
same,MIC,[2],25 µg/mL
same,MIC,[3],6.25 µg/mL
same,MIC,[4],6.25 µg/mL
same,MIC,[5]; [10],6.25 µg/mL
same,MIC,[5]; [11],6.25 µg/mL
same,MIC,[6],12.5 µg/mL
same,MIC,[7],25 µg/mL
"CC1C=C(C(=O)O)N2C(=O)C(NC(=O)CSc3ccccc3)C2S1 (stereo not shown) [Applicants' compound (9), 2-Methyl-7-(2-phenylthioacetamido)-3-cephem-4-carboxylic acid]",MIC,[1]; [8],0.2 µg/mL
same,MIC,[1]; [9],0.2 µg/mL
same,MIC,[2],1.56 µg/mL
same,MIC,[3],0.39 µg/mL
same,MIC,[4],0.39 µg/mL
same,MIC,[5]; [10],0.2 µg/mL
same,MIC,[5]; [11],0.2 µg/mL
same,MIC,[6],0.78 µg/mL
same,MIC,[7],0.39 µg/mL
"CC1=C(C(=O)O)N2C(=O)C(NC(=O)CSc3nncs3)[C@H]2SC1 (stereo partly shown) [cited compound (11), 3-Methyl-7-[2-(1,3,4-thiadiazol-2-ylthio)acetamido]-3-cephem-4-carboxylic acid, reference compound]",MIC,[1]; [8],3.13 µg/mL
same,MIC,[2],6.25 µg/mL
same,MIC,[3],3.13 µg/mL
same,MIC,[4],6.25 µg/mL
same,MIC,[5]; [11],1.56 µg/mL
same,MIC,[6],3.13 µg/mL
same,MIC,[7],6.25 µg/mL
"CC1C=C(C(=O)O)N2C(=O)C(NC(=O)C(O)c3cccs3)[C@H]2S1 (stereo partly shown) [Applicants' compound (2), 2-Methyl-7-[2-hydroxy-2-(2-thienyl)acetamido]-3-cephem-4-carboxylic acid]",MIC,[1]; [8],0.78 µg/mL
same,MIC,[1]; [9],0.78 µg/mL
same,MIC,[2],3.13 µg/mL
same,MIC,[3],0.78 µg/mL
same,MIC,[4],3.13 µg/mL
same,MIC,[5]; [10],0.78 µg/mL
same,MIC,[5]; [11],0.78 µg/mL
same,MIC,[6],3.13 µg/mL
same,MIC,[7],3.13 µg/mL
"CC1C=C(C(=O)O)N2C(=O)C(NC(=O)C(OC(=O)c3ccncc3)c3ccccc3)[C@H]2S1 (stereo partly shown) [Applicants' compound (4), 2-Methyl-7-(2-isonicotinoyloxy-2-phenylacetamido)-3-cephem-4-carboxylicacid]",MIC,[1]; [8],0.39 µg/mL
same,MIC,[1]; [9],0.39 µg/mL
same,MIC,[2],6.25 µg/mL
same,MIC,[3],0.78 µg/mL
same,MIC,[4],0.78 µg/mL
same,MIC,[5]; [10],0.78 µg/mL
same,MIC,[5]; [11],0.78 µg/mL
same,MIC,[6],1.56 µg/mL
same,MIC,[7],1.56 µg/mL
"CC1=C(C(=O)O)N2C(=O)C(NC(=O)C(OC(=O)c3ccncc3)c3ccccc3)C2SC1 (stereo not shown) [cited compound (4), reference compound]",MIC,[1]; [8],1.56 µg/mL
same,MIC,[2],12.5 µg/mL
same,MIC,[3],12.5 µg/mL
same,MIC,[4],12.5 µg/mL
same,MIC,[5]; [11],0.78 µg/mL
same,MIC,[6],12.5 µg/mL
same,MIC,[7],12.5 µg/mL
"CC1C=C(C(=O)O)N2C(=O)C(NC(=O)C(NC(=O)CSc3nncs3)c3ccccc3)[C@H]2S1 (stereo partly shown) [Applicants' compound (1), 2-Methyl-7-[N-[2-(1,3,4-thiadiazol-2-ylthio)acetyl]phenylglycyl]amino-3-cephem-4-carboxylic acid]",MIC,[1]; [8],1.56 µg/mL
same,MIC,[1]; [9],1.56 µg/mL
same,MIC,[2],12.5 µg/mL
same,MIC,[3],3.13 µg/mL
same,MIC,[4],1.56 µg/mL
same,MIC,[5]; [10],3.13 µg/mL
same,MIC,[5]; [11],3.13 µg/mL
same,MIC,[6],3.13 µg/mL
same,MIC,[7],3.13 µg/mL
